Patent publication US9988395B2, “Antiparasitic compositions and methods utilizing substituted 5,5,7,7-tetramethyl-4,5,6,7-tetrahydrothieno[2,3-C]pyridine derivatives” (THE BOARD OF REGENTS OF THE UNIVERSITY OF TEXAS SYSTEM, priority 2015, dated 2018)
Where two headings read alike, the source gives them in different places.

Assays:
T. cruzi trypomastigotes = assay: Proliferation assay of T. cruzi trypomastigotes inside Human Osteoblasts; format: cell-based, Trypanosoma cruzi; settings: 48 H treatment
Description: IC50 is median inhibitory concentration. TI is therapeutic index. […] This example further illustrates positives effects of treatment with the present compounds. […] The negative control was treated with 1% DMSO. The positive control was treated with Amp B at […].

T. cruzi Epimastigotes = assay: Activity against T. cruzi epimastigotes; format: cell-based, Trypanosoma cruzi
[1] = system: L. major Luciferase promastigotes; assay: Antiparasitic activity in L. major Luciferase promastigotes; format: cell-based, Leishmania major; settings: 72 hr
Text: IC50 is median inhibitory concentration. TI is therapeutic index.

IC50 (T. cruzi trypomastigotes; Trypanosoma cruzi, Osteoblast) [µM]	Compound	Mammalian cells LD50 (μM) Raw 264.7 Macrophages (Raw 264.7 Macrophages; mouse, 48 h) [µM]	further results
< 10	CCOC(=O)c1c(N)sc2c1CC(C)(C)NC2(C)C [RS1, Ethyl 2-amino-5,5,7,7-tetramethyl-4,5,6,7-tetrahydrothieno[2,3-C]pyridine-3-carboxylate]	–	–
–	CCOC(=O)c1c(NC(=O)c2ccc(F)c(C(F)(F)F)c2)sc2c1CC(C)(C)NC2(C)C [GP1-05, Ethyl 2-(4-fluoro-3-(trifluoromethyl)benzamido)-5,5,7,7-tetramethyl-4,5,6,7-tetrahydrothieno[2,3-c]pyridine-3-carboxylate]	22	–
< 1.25	CCOC(=O)c1c(NC(=O)c2cccc(C(F)(F)F)c2)sc2c1CC(C)(C)NC2(C)C [RS3, Ethyl 5,5,7,7-tetramethyl-2-(3-(trifluoromethyl)benzamido)-4,5,6,7-tetrahydro-thieno[2,3-c]pyridine-3-carboxylate]	>40	–
–	CCOC(=O)c1c(NC(=O)c2cccc(C(F)(F)F)c2F)sc2c1CC(C)(C)NC2(C)C [GP1-04, Ethyl 2-(2-fluoro-3-(trifluoromethyl)benzamido)-5,5,7,7-tetramethyl-4,5,6,7-tetrahydrothieno[2,3-c]pyridine-3-carboxylate]	17	–
7.5	CCOC(=O)c1c(NC(=O)c2ccc(C(F)(F)F)cc2)sc2c1CC(C)(C)NC2(C)C [RS5, Ethyl 5,5,7,7-tetramethyl-2-(4-(trifluoromethyl)benzamido)-4,5,6,7-tetrahydrothieno[2,3-c]pyridine-3-carboxylate]	–	–
–	CCOC(=O)c1c(NC(=O)c2c(F)c(F)c(F)c(F)c2F)sc2c1CC(C)(C)NC2(C)C [RS4, Ethyl 5,5,7,7-tetramethyl-2-(perfluorobenzamido)-4,5,6,7-tetrahydrothieno[2,3c]pyridine-3-carboxylate]	–	L. major LD50 (μM) Promastigotes [1]: 0.671 µM; IC50 (T. cruzi trypomastigotes): < 0.156 µM; Mammalian cells LD50 (μM) Raw 264.7 Macrophages (Raw 264.7 Macrophages; macrophage cytotoxicity, text: intraperitoneal macrophages (IPΦ) treated for 48 hrs): ~15 µM

Compound	IC50 (T. cruzi trypomastigotes; Trypanosoma cruzi, Osteoblast) [µM]	Mammalian cells LD50 (μM) Raw 264.7 Macrophages (Raw 264.7 Macrophages; mouse, 48 h) [µM]	further results
CCOC(=O)c1c(NC(=O)c2ccc([N+](=O)[O-])s2)sc2c1CC(C)(C)NC2(C)C [RS2, ethyl 5,5,7,7-tetramethyl-2-(5-nitrothiophene-2-carboxamido)-4,5,6,7-tetrahydrothieno[2,3-c]pyridine-3-carboxylate]	< 1.25	~32	T. cruzi LD50 (μM) Epimastigotes (T. cruzi Epimastigotes): ~7.5 µM
